The text below walks through data of patent US8163728B2, “Pyrazoles” (Hoffmann-La Roche Inc., priority 2009, dated 2012).

pKi: −log10 of the molar value.

For this test, the target named is T1, GABA A α5 (Homo sapiens, UniProt P18507+P31644).
T1 construct: expressed in transfected cells; host or cells: HEK293 cells, transiently transfected; membranes prepared from cell pellets
The test can be described thus: [3H]flumazenil competition binding, human GABA A α5β3γ2 receptors in HEK293 cell membranes. To be noted: human receptor α5β3γ2 transiently transfected in HEK293; 0.5 nM [3H]flumazenil; 1 hour at 4° C.; means of two determinations; read-out: hKi GABA A α5. As to the method:
The affinity of compounds at GABA A receptor subtypes was measured by competition for [3H]flumazenil (85 Ci/mmol; Roche) binding to HEK293 cells expressing rat (stably transfected) or human (transiently transfected) receptors of composition α1β3γ2, α2β3γ2, α3β3γ2 and α5β3γ2.
Cell pellets were suspended in Krebs-tris buffer (4.8 mM KCl, 1.2 mM CaCl2, 1.2 mM MgCl2, 120 mM NaCl, 15 mM Tris; pH 7.5; binding assay buffer), homogenized by polytron for ca. 20 sec on ice and centrifuged for 60 min at 4° C. (50000 g; Sorvall, rotor: SM24=20000 rpm). The cell pellets were re-suspended in Krebs-tris buffer and homogenized by polytron for ca. 15 sec on ice. Protein was measured (Bradford method, Bio-Rad) and aliquots of 1 mL were prepared and stored at −80° C.
Assays were incubated to equilibrium for 1 hour at 4° C. and harvested onto GF/C uni-filters (Packard) by filtration using a Packard harvester and washing with ice-cold wash buffer (50 mM Tris; pH 7.5). After drying, filter-retained radioactivity was detected by liquid scintillation counting. Ki values were calculated using Excel-Fit (Microsoft) and are the means of two determinations.
Turning to `Cc1onc(-c2ccc(F)cc2)c1COc1cc(C(=O)NN2CCOCC2)[nH]n1` [Example 8, 5-[3-(4-Fluoro-phenyl)-5-methyl-isoxazol-4-ylmethoxy]-2H-pyrazole-3-carboxylic acid morpholin-4-ylamide], the pKi was 8.74.
In the case of `Cc1onc(-c2ccc(F)cc2)c1COc1cc(C(=O)NN2CCCC2)[nH]n1` [Example 10, 5-[3-(4-Fluoro-phenyl)-5-methyl-isoxazol-4-ylmethoxy]-2H-pyrazole-3-carboxylic acid pyrrolidin-1-ylamide] it was 8.42; in that of `Cc1onc(-c2ccc(F)cc2)c1COc1cc(C(=O)NN(C)C)[nH]n1` [Example 11, 5-[3-(4-Fluoro-phenyl)-5-methyl-isoxazol-4-ylmethoxy]-2H-pyrazole-3-carboxylic acid N′,N′-dimethyl-hydrazide], 8.31; in that of `Cc1onc(-c2ccc(F)cc2)c1COc1cc(C(=O)NC(C)C)[nH]n1` [Example 12, 5-[3-(4-Fluoro-phenyl)-5-methyl-isoxazol-4-ylmethoxy]-2H-pyrazole-3-carboxylic acid isopropylamide], 8.64.
Take `Cc1onc(-c2ccc(F)cc2)c1COc1cc(C(=O)NC2CCOCC2)[nH]n1` [Example 13, 5-[3-(4-Fluoro-phenyl)-5-methyl-isoxazol-4-ylmethoxy]-2H-pyrazole-3-carboxylic acid (tetrahydro-pyran-4-yl)-amide]: the pKi was 9.30.
Take `Cc1onc(-c2ccccn2)c1COc1cc(C(=O)NC(C)C)n[nH]1` [Example 14, 5-(5-Methyl-3-pyridin-2-yl-isoxazol-4-ylmethoxy)-1H-pyrazole-3-carboxylic acid isopropylamide]: the pKi is 8.03.
In the case of `Cc1onc(-c2ccccn2)c1COc1cc(C(=O)NC2CCOCC2)n[nH]1` [Example 15, 5-(5-Methyl-3-pyridin-2-yl-isoxazol-4-ylmethoxy)-1H-pyrazole-3-carboxylic acid (tetrahydropyran-4-yl)-amide] it was 8.60; in that of `Cc1onc(-c2ccccn2)c1COc1cc(C(=O)N[C@@H](C)CO)n[nH]1` [Example 16, 5-(5-Methyl-3-pyridin-2-yl-isoxazol-4-ylmethoxy)-1H-pyrazole-3-carboxylic acid ((S)-2-hydroxy-1-methyl-ethyl)-amide], 7.95.
Regarding `Cc1onc(-c2ccc(F)cn2)c1COc1cc(C(=O)NCC(F)(F)F)[nH]n1` [Example 17, 5-[3-(5-Fluoro-pyridin-2-yl)-5-methyl-isoxazol-4-ylmethoxy]-2H-pyrazole-3-carboxylic acid (2,2,2-trifluoro-ethyl)-amide], the pKi was 8.92.
With `Cc1onc(-c2ccc(F)cn2)c1COc1cc(C(=O)NC(C)(C)C)[nH]n1` [Example 19, 5-[3-(5-Fluoro-pyridin-2-yl)-5-methyl-isoxazol-4-ylmethoxy]-2H-pyrazole-3-carboxylic acid tert-butylamide] the figure was 7.75; with `Cc1onc(-c2ccc(F)cn2)c1COc1cc(C(=O)NCCO)[nH]n1` [Example 20, 5-[3-(5-Fluoro-pyridin-2-yl)-5-methyl-isoxazol-4-ylmethoxy]-2H-pyrazole-3-carboxylic acid (2-hydroxy-ethyl)-amide], 8.40; with `Cc1onc(-c2ccc(F)cn2)c1COc1cc(C(=O)NC(C)C)[nH]n1` [Example 21, 5-[3-(5-Fluoro-pyridin-2-yl)-5-methyl-isoxazol-4-ylmethoxy]-2H-pyrazole-3-carboxylic acid isopropylamide], 8.60.
Consider `Cc1onc(-c2ccc(F)cn2)c1COc1cc(C(=O)NN(C)C)[nH]n1` [Example 22, 5-[3-(5-Fluoro-pyridin-2-yl)-5-methyl-isoxazol-4-ylmethoxy]-2H-pyrazole-3-carboxylic acid N′,N′-dimethyl-hydrazide], for which the pKi was 8.17.
With `Cc1onc(-c2ccc(F)cn2)c1COc1cc(C(=O)NN2CCOCC2)[nH]n1` [Example 23, 5-[3-(5-Fluoro-pyridin-2-yl)-5-methyl-isoxazol-4-ylmethoxy]-2H-pyrazole-3-carboxylic acid morpholin-4-ylamide], the pKi was 8.72.
Consider `Cc1onc(-c2ccc(F)cn2)c1COc1cc(C(=O)NN2CCCC2)[nH]n1` [Example 24, 5-[3-(5-Fluoro-pyridin-2-yl)-5-methyl-isoxazol-4-ylmethoxy]-2H-pyrazole-3-carboxylic acid pyrrolidin-1-ylamide], for which the pKi is 8.46.
In the case of `O=C(NN1CCOCC1)c1cc(OCc2conc2-c2ccc(F)cn2)n[nH]1` [Example 25, 5-[3-(5-Fluoro-pyridin-2-yl)-isoxazol-4-ylmethoxy]-2H-pyrazole-3-carboxylic acid morpholin-4-ylamide] it was 7.87; in that of `CCCCc1noc(C)c1COc1cc(C(=O)NC2CCOCC2)[nH]n1` [Example 26, 5-(3-Butyl-5-methyl-isoxazol-4-ylmethoxy)-2H-pyrazole-3-carboxylic acid (tetrahydropyran-4-yl)-amide], 8.64.
As to `CCCCc1noc(C)c1COc1cc(C(=O)N[C@@H](C)CO)[nH]n1` [Example 27, 5-(3-Butyl-5-methyl-isoxazol-4-ylmethoxy)-2H-pyrazole-3-carboxylic acid ((S)-2-hydroxy-1-methyl-ethyl)-amide], the pKi was 8.11.
With `CCCCc1noc(C)c1COc1cc(C(=O)NC(CO)CO)[nH]n1` [Example 29, 5-(3-Butyl-5-methyl-isoxazol-4-ylmethoxy)-2H-pyrazole-3-carboxylic acid (2-hydroxy-1-hydroxymethyl-ethyl)-amide] the figure was 7.98.
With `CCCCc1noc(C)c1COc1cc(C(=O)NCC(F)(F)F)[nH]n1` [Example 31, 5-(3-Butyl-5-methyl-isoxazol-4-ylmethoxy)-2H-pyrazole-3-carboxylic acid (2,2,2-trifluoro-ethyl)-amide] the figure was 8.19; with `CCCCc1noc(C)c1COc1cc(C(=O)NC(C)C)[nH]n1` [Example 32, 5-(3-Butyl-5-methyl-isoxazol-4-ylmethoxy)-2H-pyrazole-3-carboxylic acid isopropylamide], 7.80; with `CCCCc1noc(C)c1COc1cc(C(=O)NCCO)[nH]n1` [Example 33, 5-(3-Butyl-5-methyl-isoxazol-4-ylmethoxy)-2H-pyrazole-3-carboxylic acid (2-hydroxyethyl)-amide], 7.69.
For `CCCCc1noc(C)c1COc1cc(C(=O)N2CCOCC2)[nH]n1` [Example 36, [5-(3-Butyl-5-methyl-isoxazol-4-ylmethoxy)-2H-pyrazol-3-yl]morpholin-4-yl-methanone], the pKi was 7.27.
On to `CCCCc1noc(C)c1COc1cc(C(=O)NN(C)C)[nH]n1` [Example 38, 5-(3-Butyl-5-methyl-isoxazol-4-ylmethoxy)-2H-pyrazole-3-carboxylic acid N′,N′-dimethylhydrazide], for which the pKi is 7.41.
For `CCCCc1noc(C)c1COc1cc(C(=O)NN2CCOCC2)[nH]n1` [Example 39, 5-(3-Butyl-5-methyl-isoxazol-4-ylmethoxy)-2H-pyrazole-3-carboxylic acid morpholin-4-ylamide], the pKi was 8.24.
In the case of `CCCCc1noc(C)c1COc1cc(C(=O)NN2CCCC2)[nH]n1` [Example 40, 5-(3-Butyl-5-methyl-isoxazol-4-ylmethoxy)-2H-pyrazole-3-carboxylic acid pyrrolidin-1-ylamide] it was 7.67; in that of `CCCCc1noc(C)c1COc1cc(C(=O)NN2CCCCC2)[nH]n1` [Example 41, 5-(3-Butyl-5-methyl-isoxazol-4-ylmethoxy)-2H-pyrazole-3-carboxylic acid piperidin-1-ylamide], 7.57.
`Cc1onc(-c2ccccc2)c1COc1cc(C(=O)NCCO)n(C)n1` [Example 42, 2-Methyl-5-(5-methyl-3-phenyl-isoxazol-4-ylmethoxy)-2H-pyrazole-3-carboxylic acid (2-hydroxy-ethyl)-amide]: the pKi was 7.80.
Take `Cc1onc(-c2ccccc2)c1COc1cc(C(=O)NC2CCOCC2)n(C)n1` [Example 44, 2-Methyl-5-(5-methyl-3-phenyl-isoxazol-4-ylmethoxy)-2H-pyrazole-3-carboxylic acid (tetra-hydro-pyran-4-yl)-amide]: the pKi was 8.51.
In the case of `Cc1onc(-c2ccccc2)c1COc1cc(C(N)=O)n(C)n1` [Example 45, 2-Methyl-5-(5-methyl-3-phenyl-isoxazol-4-ylmethoxy)-2H-pyrazole-3-carboxylic acid amide] it was 7.33; in that of `Cc1onc(-c2ccccc2)c1COc1cc(C(=O)NC(C)C)n(C)n1` [Example 46, 2-Methyl-5-(5-methyl-3-phenyl-isoxazol-4-ylmethoxy)-2H-pyrazole-3-carboxylic acid isopropylamide], 7.39; in that of `Cc1onc(-c2ccccc2)c1COc1cc(C(=O)NN(C)C)n(C)n1` [Example 47, 2-Methyl-5-(5-methyl-3-phenyl-isoxazol-4-ylmethoxy)-2H-pyrazole-3-carboxylic acid N′,N′-dimethyl-hydrazide], 7.30.
With `Cc1onc(-c2ccc(F)cc2)c1COc1cc(C(=O)NN(C)C)n(C)n1` [Example 48, 5-[3-(4-Fluoro-phenyl)-5-methyl-isoxazol-4-ylmethoxy]-2-methyl-2H-pyrazole-3-carboxylic acid N′,N′-dimethyl-hydrazide] the figure was 7.63.
